Measurements published in PubChem BioAssay (NCI).
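These data come from cells grown in 96-well plates and exposed to compound for 48 hours at five concentrations. TGI: concentration producing complete growth inhibition.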

Columns and labels:
Assay in all cases: growth of human tumour cells (NCI), 48 h
SN12C renal = tested on: SN12C renal
NCI-H23 lung = tested on: NCI-H23 lung
OVCAR-5 ovarian = tested on: OVCAR-5 ovarian
IGROV1 ovarian = tested on: IGROV1 ovarian
MCF7 breast = tested on: MCF7 breast
A549 NSCLC = tested on: A549 NSCLC
U251 CNS = tested on: U251 CNS
SF-268 CNS = tested on: SF-268 CNS
M14 melanoma = tested on: M14 melanoma
SK-OV-3 ovarian = tested on: SK-OV-3 ovarian
ACHN renal = tested on: ACHN renal
HT29 colon = tested on: HT29 colon

Row | SMILES | TGI (SN12C renal) [µM] | TGI (NCI-H23 lung) [µM] | TGI (OVCAR-5 ovarian) [µM] | TGI (IGROV1 ovarian) [µM] | TGI (MCF7 breast) [µM] | TGI (A549 NSCLC) [µM] | TGI (U251 CNS) [µM] | TGI (SF-268 CNS) [µM] | TGI (M14 melanoma) [µM] | TGI (SK-OV-3 ovarian) [µM] | TGI (ACHN renal) [µM] | TGI (HT29 colon) [µM]
1 | CC(C)C(NC(=O)C(Cc1ccccc1)NC(=O)[C@H]1CCC[C@H]1NC(=O)C(N)Cc1ccc(O)cc1)C(N)=O (stereo partly specified) | > 100 | > 100 | > 100 | > 100 | > 100 | > 100 | > 100 | > 100 | > 100 | > 100 | > 100 | > 100
2 | S=C1N=C(Cl)/C(=C\c2ccccc2)N1 | > 100 | > 100 | > 100 | > 100 | > 100 | > 100 | > 100 | > 100 | > 100 | > 100 | > 100 | > 100
3 | N#CC(C#N)=Cn1c(=S)[nH]c2ccccc21 | > 100 | > 100 | > 100 | > 100 | > 100 | > 100 | > 100 | > 100 | > 100 | > 100 | > 100 | > 100
4 | CCN(CC)CCO/N=C1/C=C2CCC3C(CC[C@@]4(C)C3CC[C@]4(C)O)[C@@]2(C)CC1 (stereo partly specified) | 16.3 | 29 | 80 | 21 | 80.1 | 45.9 | 11.2 | 31.2 | 23.8 | 46.4 | 39.2 | 5.35
5 | CCOP(=O)(OCC)/C(C#N)=C/c1ccnc2ccccc12 | 88.2 | 59.7 | 51 | > 100 | > 100 | > 100 | > 100 | 56.5 | 47.6 | 82.7 | > 100 | 37.5
6 | CC(C)(C)C1CCC2c3c([nH]c4ccccc34)C3C(=O)N(c4ccc5c(c4)C(=O)c4ccccc4C5=O)C(=O)C3C2C1 (stereo unspecified) | > 100 | > 100 | > 100 | > 100 | > 100 | > 100 | > 100 | > 100 | > 100 | > 100 | > 100 | > 100
7 | Cc1cc2c(cc1Cl)SC(NNc1ccc([N+](=O)[O-])cc1)=NS2(=O)=O | > 10 | > 10 | > 10 | > 10 | > 10 | > 10 | > 10 | > 10 | > 10 | > 10 | > 10 | > 10
8 | CC(=O)c1sc(=N)n(-c2c(C)cccc2C)c1C | > 100 | > 100 | > 100 | > 100 | > 100 | > 100 | > 100 | > 100 | > 100 | > 100 | > 100 | > 100
9 | CCOC(=O)/C(C#N)=C/c1ccc2c(c1)CC1(C2)Cc2cc(CC)c(C(C)O)cc2C1 (stereo unspecified) | 32.4 | 39.5 | > 93.1 | 57 | 23.9 | > 100 | 20.3 | 32.1 | 16.8 | 98.2 | > 85.1 | 39.5
10 | CC[C@@H]1/C=C/C=C/C[C@H](C)[C@@H](O)[C@](C)(O)C(=O)[C@H](C)[C@@H](O)[C@H](C)C(=O)[C@H](C)[C@@H](O)[C@H](C)/C=C/C(=O)O[C@H]2[C@@H](C)[C@@H](CC1)O[C@@]1(CC[C@@H](C)[C@@H](CC(C)O)O1)[C@@H]2C (stereo partly specified) | 4.95 | 7.94 | 7.38 | 5.96 | 7.08 | 9.1 | 11.1 | 12.7 | 6.52 | 14.5 | 8.69 | 4.19
11 | CC1(C)[C@H]2Cc3cc(-c4cc5c(cn4)[C@@H]4C[C@H]([C@@H]5[C@@H]5c6cc(-c7cc8c(cn7)[C@@H]7C[C@H](C8)C7(C)C)ncc6[C@@H]6C[C@H]5C6(C)C)C4(C)C)ncc3[C@@H]1C2 | > 100 | > 100 | > 100 | > 100 | > 100 | > 100 | > 100 | > 100 | > 100 | > 100 | > 100 | > 100
12 | CN(C)CC1CN=C(NC(=O)Nc2ccccc2)O1 (stereo unspecified) | > 100 | > 100 | > 100 | > 100 | > 100 | > 100 | > 100 | > 100 | > 100 | > 100 | > 100 | > 100
13 | COC(=O)c1c(-c2ccccc2)c2sc3ccccc3n2c1N | 96.1 | > 100 | > 100 | > 100 | > 100 | > 100 | > 100 | > 100 | > 100 | > 100 | > 100 | > 100
